Data taken from patent publication US7976843B2, “Method for screening peptides for use in immunotherapy” (Institut National de la Santa et de la Recherche Medicale …, priority 2000, dated 2011).

Test system: RMA-HHD cells infected with vac-HIVgag, vac-neu, vac-gp100 or flu PR8
Parameters: species or system HHD mice
Settings: mouse, in vivo

| Sequence | killing of RMA-HHD cells infected with virus expressing the antigen vs vac-WT |
| --- | --- |
| PLTSIISAV [HER-2/neu 650] | kill target cells infected with vac-neu, but not targets infected with vac-WT |
| ILLVVVLGV [HER-2/neu 661] | exception |
